ChEMBL document CHEMBL1201862, “PubChem BioAssay data set” (2004)
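A five-concentration, 48-hour dose response in 96-well plates underlies each endpoint, interpolated linearly between surrounding concentrations. Here, GI50 denotes the concentration required for 50% inhibition of growth.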 Active and inactive are the calls of the source. Cut-off read from the data, not from the text of the source: active = GI50 up to about 1.1 µM and inactive = higher. Where a SMILES comes first, the peptide text is derived from it. The star is where a group is joined. Boc = CC(C)(C)OC(=O)*

Legend:
Assay in all cases: growth of human tumour cells (NCI), 48 h
OVCAR-8 = test system: OVCAR-8
SNB-19 = test system: SNB-19
PC-3 = test system: PC-3
UACC-257 = test system: UACC-257
NCI/ADR-RES = test system: NCI/ADR-RES
SK-MEL-2 = test system: SK-MEL-2
SF-295 = test system: SF-295
MCF7 = test system: MCF7
U-251 = test system: U-251
HCT-15 = test system: HCT-15
SK-MEL-28 = test system: SK-MEL-28
BT-549 = test system: BT-549
SF-539 = test system: SF-539

| SMILES | GI50 (OVCAR-8) | GI50 (SNB-19) | GI50 (PC-3) | GI50 (UACC-257) | GI50 (NCI/ADR-RES) | GI50 (SK-MEL-2) | GI50 (SF-295) | GI50 (MCF7) | GI50 (U-251) | GI50 (HCT-15) | GI50 (SK-MEL-28) | GI50 (BT-549) | GI50 (SF-539) |
| --- | --- | --- | --- | --- | --- | --- | --- | --- | --- | --- | --- | --- | --- |
| CC(C(=O)NCCNC(=O)CCC(=O)N(C)O)C(=O)NCCNC(=O)CCC(=O)N(C)O | > 100 µM (inactive) | > 100 µM (inactive) | > 100 µM (inactive) | > 100 µM (inactive) | > 100 µM (inactive) | > 100 µM (inactive) | > 100 µM (inactive) | > 100 µM (inactive) | > 100 µM (inactive) | > 100 µM | 5.71 µM (inactive) |  |  |
| CNc1ccc2c(c1)[C@@]1(C)c3ccccc3[C@@H](C2)N1C |  | 37.8 µM (inactive) | 29.9 µM (inactive) | 23.4 µM (inactive) | 27.4 µM (inactive) | 21.6 µM (inactive) | 29.6 µM (inactive) | 29.7 µM (inactive) | 20.4 µM (inactive) | 19 µM |  | 17.6 µM (inactive) |  |
| COP(C)(=O)/C(Cc1ccccc1)=N\O (stereo not drawn) | > 100 µM (inactive) | > 100 µM (inactive) | > 100 µM (inactive) | > 100 µM (inactive) | > 100 µM (inactive) | > 100 µM (inactive) | > 100 µM (inactive) | > 100 µM (inactive) | > 100 µM (inactive) | > 100 µM | > 100 µM (inactive) |  |  |
| O=C1/C(=C/c2ccc(Oc3ccccc3)cc2)N=C(c2ccccc2)N1c1ccc(S(=O)(=O)Nc2nccs2)cc1 |  | 35.3 µM (inactive) | 25.4 µM (inactive) | 21.3 µM (inactive) | 13.1 µM (inactive) | 2.63 µM (inactive) | 22.8 µM (inactive) | 14.3 µM (inactive) | 17.1 µM (inactive) | 8.07 µM | 22.8 µM (inactive) |  | 31.5 µM (inactive) |
| CCOC(=O)c1ccc(C(=O)n2ccnc2)[nH]1 | > 100 µM (inactive) | > 100 µM (inactive) | > 100 µM (inactive) | > 100 µM (inactive) | > 100 µM (inactive) | > 100 µM (inactive) | > 100 µM (inactive) | > 100 µM (inactive) | > 100 µM (inactive) | > 100 µM | > 100 µM (inactive) | > 100 µM (inactive) |  |
| C=C1CC(C)(COc2ccc3c(C)c(C)c(=O)oc3c2C)OC1=O (stereo not drawn) | 2.11 µM (inactive) | 13.4 µM (inactive) | 2.27 µM (inactive) | 2.09 µM (inactive) | 2.46 µM (inactive) | 2.01 µM (inactive) | 5.19 µM (inactive) | 1.29 µM (inactive) | 6.56 µM (inactive) | 1.56 µM | 2.07 µM (inactive) | 1.5 µM (inactive) | 2.24 µM (inactive) |
| Cc1ccc(S(=O)(=O)NC(=O)NC(CCCCNC(=N)N)C(=O)O)cc1 (stereo not drawn) | > 100 µM (inactive) | > 100 µM (inactive) | > 100 µM (inactive) | > 100 µM (inactive) | > 100 µM (inactive) | > 100 µM (inactive) | > 100 µM (inactive) | > 100 µM (inactive) | > 100 µM (inactive) | > 100 µM | > 100 µM (inactive) | > 100 µM (inactive) | > 100 µM (inactive) |
| CC(C)=CCN1c2ccc(Cl)cc2NC(=O)CC1C (stereo not drawn) | 19.1 µM (inactive) | 36.9 µM (inactive) | 23.8 µM (inactive) | 21.2 µM (inactive) |  | 20.6 µM (inactive) | 35.1 µM (inactive) | 21.4 µM (inactive) | 27.5 µM (inactive) | 31.4 µM | 41.9 µM (inactive) | 21.8 µM (inactive) | 20.5 µM (inactive) |
| COc1ccc(-c2csc3c2[N+]2(C)C=CC=C2C3N2CCCC2)cc1 (stereo not drawn) | 17.5 µM (inactive) | 26.6 µM (inactive) | 23 µM (inactive) | 7.4 µM (inactive) | 17.3 µM (inactive) | 10.6 µM (inactive) | 10.6 µM (inactive) | 29 µM (inactive) | 7.01 µM (inactive) | 37.9 µM |  | 8.2 µM (inactive) | 17.7 µM (inactive) |
| CN1CN(c2ccccc2)C2(CCN(CCCC(=O)c3cccs3)CC2)C1=O | 55.8 µM (inactive) | 47.5 µM (inactive) | 94.8 µM (inactive) | 29 µM (inactive) | 41 µM (inactive) |  | 33 µM (inactive) | 25.2 µM (inactive) | 45.7 µM (inactive) | 34.7 µM | > 100 µM (inactive) |  | 23.8 µM (inactive) |
| CCOC(=O)c1cn2c(n1)sc1cc([N+](=O)[O-])ccc12 | > 100 µM (inactive) | 78.2 µM (inactive) | > 100 µM (inactive) | > 100 µM (inactive) | > 100 µM (inactive) | > 100 µM (inactive) | 37.3 µM (inactive) | > 100 µM (inactive) | 76 µM (inactive) | > 100 µM | > 100 µM (inactive) | 74.6 µM (inactive) | 62.7 µM (inactive) |
| C(=C\Nc1ccc(Oc2ccccc2)cc1)/C=N/c1ccc(Oc2ccccc2)cc1 | 20.2 µM (inactive) | 17.3 µM (inactive) | 15.1 µM (inactive) | 17.1 µM (inactive) | 16.9 µM (inactive) |  | 15.9 µM (inactive) | 16.9 µM (inactive) | 19.1 µM (inactive) | 19.5 µM | 16.6 µM (inactive) | 15.9 µM (inactive) | 16.4 µM (inactive) |
| COc1ccc(N(C)C(=O)N(C)c2ccc([N+](=O)[O-])cc2)cc1 | 71 µM (inactive) | > 100 µM (inactive) |  | 26.1 µM (inactive) | 23.6 µM (inactive) | 14.5 µM (inactive) |  | 39.1 µM (inactive) | 30.4 µM (inactive) | 30.1 µM | 50.2 µM (inactive) | 44.8 µM (inactive) | 29.6 µM (inactive) |
| CCOC(=O)c1csc(NC(=O)CCN2CCCCC2)n1 | > 100 µM (inactive) | > 100 µM (inactive) | > 100 µM (inactive) | > 100 µM (inactive) | > 100 µM (inactive) | > 100 µM (inactive) | > 100 µM (inactive) | > 100 µM (inactive) | > 100 µM (inactive) | > 100 µM | > 100 µM (inactive) |  | > 100 µM (inactive) |
| CCCc1cc(=O)oc2c3c(c4c(c12)OC(C)(C)CC4)O[C@@H](C)[C@H](C)[C@H]3O | 13.3 µM (inactive) | 14 µM (inactive) | 4.23 µM (inactive) | 4.94 µM (inactive) | 9.4 µM (inactive) | 14.6 µM (inactive) | 13.5 µM (inactive) | 12.6 µM (inactive) | 11.8 µM (inactive) | 11.2 µM | 15.6 µM (inactive) | 5.06 µM (inactive) | 17.6 µM (inactive) |
| COc1cc(C)cc(OC)c1/C=C/C(=O)O | > 100 µM (inactive) | > 100 µM (inactive) | > 100 µM (inactive) | > 100 µM (inactive) | > 100 µM (inactive) | > 100 µM (inactive) | > 100 µM (inactive) |  | > 100 µM (inactive) | > 100 µM | > 100 µM (inactive) | > 100 µM (inactive) |  |
| COc1cc(CO)c(CC(=O)NCCCc2ccccc2)cc1OC | > 100 µM (inactive) | > 100 µM (inactive) | > 100 µM (inactive) | > 100 µM (inactive) | 99.1 µM (inactive) | > 100 µM (inactive) |  |  | > 100 µM (inactive) | > 100 µM | > 100 µM (inactive) | > 100 µM (inactive) |  |
| CCN(CCO)C(=O)C1(c2ccccc2)CCCCC1 | > 10 µM (inactive) | > 10 µM (inactive) | > 10 µM (inactive) |  | > 10 µM (inactive) | > 10 µM (inactive) | > 10 µM (inactive) | > 10 µM (inactive) | > 10 µM (inactive) | > 10 µM | > 10 µM (inactive) |  | > 10 µM (inactive) |
| CCCCCCc1cc2cc(C(=O)Nc3nc(C45CC6CC(CC(C6)C4)C5)cs3)c(=O)oc2cc1O | 7.11 µM (inactive) | 12.3 µM (inactive) | 9.27 µM (inactive) | 24.6 µM (inactive) | 17.3 µM (inactive) | 12.3 µM (inactive) | 4.06 µM (inactive) | 13.9 µM (inactive) | 11.6 µM (inactive) | 3.85 µM | 29.3 µM (inactive) | 23.8 µM (inactive) | 10.8 µM (inactive) |
| BrP(NC1CCCCCC1)(c1ccccc1)(c1ccccc1)c1ccccc1 | 2.9 µM (inactive) | 4.66 µM (inactive) | 1.56 µM (inactive) | 1.86 µM (inactive) | 44 µM (inactive) | 2.44 µM (inactive) | 3.03 µM (inactive) | 2.5 µM (inactive) | 3.55 µM (inactive) | 18.8 µM | 2.4 µM (inactive) | 3.26 µM (inactive) | 14.1 µM (inactive) |
| CCCOC1OC(CS(=O)(=O)O)C(O)C(O)C1O (stereo not drawn) | > 100 µM (inactive) | > 100 µM (inactive) | > 100 µM (inactive) | > 100 µM (inactive) | > 100 µM (inactive) | > 100 µM (inactive) | > 100 µM (inactive) | > 100 µM (inactive) | > 100 µM (inactive) | > 100 µM | > 100 µM (inactive) | > 100 µM (inactive) |  |
| Cc1cnc2nc(-c3ccc4ccccc4c3)cc(O)c2c1 | 0.685 µM (active) | 0.908 µM (active) |  |  | 0.349 µM (active) | > 100 µM (inactive) |  | 0.561 µM (active) |  | 0.439 µM | > 100 µM (inactive) | > 100 µM (inactive) | 0.391 µM (active) |
| COC(=O)[C@H](Cc1ccc(O)cc1)NC(=O)[C@H](Cc1ccc(O)cc1)NC(=O)OC(C)(C)C (Boc-Tyr-Tyr-OMe) | 66.4 µM (inactive) | > 100 µM (inactive) | > 100 µM (inactive) | > 100 µM (inactive) | > 100 µM (inactive) |  | > 100 µM (inactive) | 43.8 µM (inactive) |  | > 100 µM |  | > 100 µM (inactive) | 82.2 µM (inactive) |
| Oc1cc(O)c2c(c1)O[C@H](c1ccc(O)c(O)c1)[C@@H](O)C2 [CIANIDANOL] | > 100 µM (inactive) | > 100 µM (inactive) | > 100 µM (inactive) | > 100 µM (inactive) | > 100 µM (inactive) | > 100 µM (inactive) | > 100 µM (inactive) | > 100 µM (inactive) | > 100 µM (inactive) | > 100 µM | > 100 µM (inactive) |  | > 100 µM (inactive) |
